Marks after values point to notes of the source that are not given here. Where no end group is shown, it is not given here.
What was measured:
[1] = tested on: Patients with BPH and who optionally also had LUTS; assay: Clinical trial: inability to provide urine volume >125 mL (Qmax unable / Qmax failure) after intraprostatic injection; type: in vivo, human
Protocol: (§1) Clinical trials were conducted on numerous individuals having BPH, some of whom also had LUTS. All protocols were done in accordance with applicable regulations, and carried out by physicians.
Patients with BPH and who optionally also had LUTS were given an intraprostatic injection of either a) FT 2.5 mg in phosphate buffered saline pH 7.2 (“PBS”) or b) PBS alone, under double-blind conditions by a urologist in an office setting under ultrasound guidance. Patients were followed for 12 months to several years with regular physical examinations, laboratory tests, and evaluations of symptoms. Urinary peak flow (Qmax) was measured by flow meter readings using standard techniques, at baseline, and at 12 months in subjects who were able to urinate adequate volume of urine (>125 mL) to provide a valid test. Subjects who were unable to void >=125 mL despite drinking as much water as they wanted were classified as “Qmax unable.” The numbers of subjects who became Qmax unable was compared in different groups.

[2] = tested on: Patients with BPH and who optionally also had LUTS; assay: Clinical trial: deterioration/worsening in urinary peak flow rate (Qmax worsening) after intraprostatic injection; type: in vivo, human
Protocol: as §1
Patients with BPH and who optionally also had LUTS were given an intraprostatic injection of either a) FT 2.5 mg in phosphate buffered saline pH 7.2 (“PBS”) or b) PBS alone, under double-blind conditions by a urologist in an office setting under ultrasound guidance. Patients were followed for 12 months to several years with regular physical examinations, laboratory tests, and evaluations of symptoms. Urinary peak flow (Qmax) was measured by flow meter readings using standard techniques, at 3 months and at 12 months.

[3] = tested on: Patients with BPH and who optionally also had LUTS; assay: Clinical trial: nocturia frequency by patient questionnaires after intraprostatic injection; type: in vivo, human
From the text: Improvements in obstructive and irritative symptoms can be measured in accordance with techniques known in the art. For example, uroflowmeters are known to differentiate urine weight change to provide a continuous plot of the flow rate vs. time that is smoothed by internal electronic filtering to permit precise (±5%) measurement of Qmax. Schafer W, et al. “Good urodynamic practices: Uroflowmetry, filling cystometry and pressure-flow studies,” Neurourol Urodynamics, Vol. 21, pp. 261-74 (2002). Nocturia can be measured in a variety of manners, most of which involve patients completing a questionnaire before and after treatment to establish a baseline, and then determine the difference (improvement, lack of improvement, worsening, etc.) from baseline after treatment. Exemplary questionnaires include evaluating the scores from the nocturia question included in the International Prostate Symptom Score (IPSS), assessing the number of nocturnal voids (Boyarsky symptom score), the Madsen-Iversen Symptom Score, and the ICSmale questionnaire. See, e.g., Chartier-Kastler, et al., “The Measurement of Nocturia and its Impact on Quality of Sleep and Quality of Life in LUTS/BPH,” Eur. Urol. Supp., Vol. 5, pp. 3-11 (2006). A preferred method of measuring nocturia is by determining the mean change from baseline of the nocturia question in the IPSS (question 7). Question 7 solicits from the patient how many times over the past month they had to get up to urinate from the time they went to bed until the time they got up—the score ranging from none (score 0) to 5 or more times (score 5).
as §1
Patients with BPH and who optionally also had LUTS were given an intraprostatic injection of either a FT2.5 in 10 mL phosphate buffered saline pH 7.2 (“PBS”) or PBS 10 mL alone, under double-blind conditions by a urologist in an office setting under ultrasound guidance. Patients were followed for 12 months with regular physical examinations, laboratory tests, and evaluations of symptoms. The mean frequency of nocturia in the prior month was recorded in patient questionnaires.

[4] = tested on: prostate glandular epithelial cells; assay: In vitro tissue culture genetic array: apoptosis pathway activation; type: cell-based
From the text: FT is a new molecular entity which in vitro stimulates caspase pathways (activation of caspases 7, 8, and 10, caspase recruitment domains 6, 11, and 14, and DIABLO), tumor necrosis factor pathways (activation of TNF1, TNFSF6, TNFSF8, TNFSF9, CD70 ligands, and TNFRSF19L, TNFRSF25, TRAF2, TRAF3, TRAF4, TRAF6 receptors), and BCL pathways (activation of BIK, HRK, BCL2L10 and BCL3) in prostate glandular epithelial cells, based on tissue culture genetic array data. FT selectively causes loss of cell membrane integrity, mitochondrial metabolic arrest, depletion of RNA, DNA lysis and aggregation, and cell fragmentation and cell loss. The apoptotic process leads to typical ultrastructural progressive changes of membranous disruption and swelling, progressively deepening nuclear invaginations with eventual membranous bleb formations and cell death and fragmentation into apoptotic bodies. Histologically, typical apoptotic changes with positive immunohistochemical staining of markers for apoptosis are found throughout the injected areas for up to several weeks after treatment.

[5] = about 3 months after single dose of FT ≥2.5 mg, vs control

## Fexapotide Triflutate (IDQQVLSRIKLEIKRCL; also: trifluoroacetate salt) [FT]
[1]; 12 months after single intraprostatic dose of 2.5 mg FT, placebo 5.9%
  % of Qmax Unable at 12 months (% of patients with inability to provide urine volume >125 mL): 4.5%
[1]; Qmax at baseline and 12 months, FT 2.5 mg vs PBS
  mean flow rate improvements, FT treated patients versus controls: similar
[1]; [5]
  percent decrease in patients unable to provide urine volume ≥125 ml compared to control: ≈ 10%
[1]; about 3 months after single dose of FT ≥2.5 mg, control 4.3%
  percentage of patients unable to provide a urine volume of ≥125 ml: 3.9%
[2]; 12 months after single intraprostatic dose of 2.5 mg FT, placebo 42%, p = 0.0239
  % of Qmax Worsening at 12 months: 35%
[2]; Qmax at 3 months and 12 months, FT 2.5 mg vs PBS
  flow rate mean improvements, FT treated group versus control group: similar
[2]; [5]
  percent decrease in patients with deterioration/worsening in peak flow rate compared to control: ≈ 5.1%
[2]; about 3 months after single dose of FT ≥2.5 mg, control 37%
  percentage of patients who showed deterioration/worsening in peak flow rate: 35.2%
[3]; 12 months after single dose of 2.5 mg FT, vs vehicle control
  improvement in percentage of patients with Nocturia frequency change >0 from baseline to 12 months compared to control: about 36%
[3]; 12 months follow-up, FT 2.5 mg vs PBS
  mean improvement in frequency of nocturia per night, FT treated subjects versus controls: similar
[3]; after 3 months, single dose of FT 2.5 mg, not significantly better than control
  improvement in mean nocturia frequency points improvement from baseline versus control: ~8%
[3]; single intraprostatic dose of 2.5 mg FT, placebo 19.19%, p = 0.0425 vs. Vehicle alone
  % of Patients With Nocturia Frequency Change >0 from Baseline to 12 Months: 14.15%*
[4]
  BCL pathways (activation of BIK, HRK, BCL2L10 and BCL3): stimulates
  caspase pathways (activation of caspases 7, 8, and 10, caspase recruitment domains 6, 11, and 14, and DIABLO): stimulates
  tumor necrosis factor pathways (activation of TNF1, TNFSF6, TNFSF8, TNFSF9, CD70 ligands, TNFRSF19L, TNFRSF25, TRAF2, TRAF3, TRAF4, TRAF6 receptors): stimulates

Reference: patent US20200360465A1, “METHOD OF TREATING LOWER URINARY TRACT SYMPTOMS WITH FEXAPOTIDE TRIFLUTATE” (Nymox Corporation, priority 2019, published 2020)
